From publication PMC4526861, “Inhibition of protein kinase C by isojacareubin suppresses hepatocellular carcinoma metastasis and induces apoptosis in vitro and in vivo” (Scientific Reports, 2015)

Tests used:
c-PARP, p53 and p21 = assay: Western blot of apoptotic proteins, HepG2; format: cell-based, human; conditions: HepG2, 24 h
Procedure: Additional PKC targeting effects involved in the early response of major MAPK phosphorylation and the late response of HCC cell invasion and apoptosis were investigated. After 24 h of treatment with ISJ at the indicated concentrations, the total protein lysates from HCC cells were analyzed (Fig. 6). ISJ inhibited the phosphorylated, activated forms of c-Raf, MEK1/2 and ERK1/2 in the MAPK signaling pathway in both HepG2 and QGY-7703 cells (Fig. 6a). […] In contrast, E-cadherin expression was elevated, specifically at the highest concentration of ISJ (20 μM) (Fig. 6b). In addition, we analyzed several representative apoptotic proteins, including cleaved PARP (c-PARP), p53 and p21. […] These findings support our hypothesis that ISJ restrains HCC cell metastasis and induces HCC cell apoptosis by specifically inhibiting PKC.
The total membrane and cytosolic proteins were extracted using a Membrane and Cytosol Protein Extraction Kit (Beyotime). Extracted proteins from cells or animal tissues were separated by SDS-PAGE and transferred to polyvinylidene difluoride (PVDF) membranes (Bio-Rad). The PVDF membranes were blocked with 5% nonfat milk and incubated with primary antibodies overnight, followed by incubation with a donkey anti-rabbit or anti-mouse secondary antibody (IRDye 800, LI-COR, Biosciences). […] The intensity was quantitative with Quantity One software (Bio-Rad). […]

HepG2 cells = assay: Cell proliferation assay (CCK-8), HepG2; format: cell-based, human
Procedure: The human HCC cell lines QGY-7703, SMMC-7721 and HepG2 and the liver cell line QSG-7701 were supplied by the Cell Resource Center, Institute of Life Sciences, Chinese Academy of Medical Science. QGY-7703, SMMC-7721 and QSG-7701 cells were cultured in 1640 medium (Gibco), and HepG2 cells were cultured in DMEM medium (Gibco) at 37 °C in moist air supplemented with 5% CO2. All media were supplemented with 10% fetal bovine serum (FBS) and 100 Units/mL of penicillin/streptomycin.
The cell viability assay was performed as previously reported using a Cell Counting Kit-8 (CCK-8; Dojindo, Kumamoto, Japan)[33][34]. The relative cell viability was presented as % inhibition and calculated using the following formula: […]

HeLa-C3 cells = test system: HeLa-C3 cells; design: method as in PMID 18614188; conditions: cited from earlier work

In the case of Isojacareubin [ISJ], the “expression levels of c-PARP, p53 and p21” value (c-PARP, p53 and p21) is reported as “increased”, the “Inhibitory Ratio (%) HepG2” value (HepG2 cells; 50 μM) is reported as 91.54% and the IC50 (HepG2 cells; mean ± SD, at least three independent experiments) is reported as 2.45 ± 0.23 µM. For the same substance, the “growth of HeLa-C3 cells” value (HeLa-C3 cells) was “inhibited the growth”.
